ChEMBL document CHEMBL3132798, “Ketorolac beats ketoprofen: lower photodecarboxylation, photohemolysis and phototoxicity” (Medchemcomm, 2013)

What was measured:
[1] = Photohemolytic activity against human erythrocytes at 60 uM after 15 mins in presence of 81197.4 mW/m2 of UVA light; format: ADME, cell-based, Erythrocyte
[2] = Phototoxicity against human skin fibroblasts at 1 to 100 uM measured after 14 hrs incubation and 24 hrs after initial 14 hrs incubation by MTS assay; conditions: skin fibroblast
[3] = Photohemolytic activity against human erythrocytes after 15 mins in presence of 81197.4 mW/m2 of UVA light; format: ADME, cell-based; conditions: erythrocyte, 0.25 h

Structure (SMILES): O=C(c1ccccc1)c1ccc2n1CCC2C(=O)O (configuration not stated) [KETOROLAC]
- hemolysis at 0.25 h, 60 µM ([1]; erythrocytes, read-out: Activity): 20%
- Activity [2]: Non-toxic

Structure (SMILES): O=C(c1ccccc1)c1ccc2n1CCC2
- Activity ([1]; erythrocyte, 0.25 h, 60 µM): Non-toxic
- Activity [2]: Non-toxic

Structure (SMILES): CCc1cccc(C(=O)c2ccccc2)c1
- Activity [3]: Dose-dependent effect
- Activity [2]: Non-toxic

Structure (SMILES): CC(C(=O)O)c1cccc(C(=O)c2ccccc2)c1 (configuration not stated) [KETOPROFEN]
- Activity [2]: Non-toxic
